{
  "source": "patent US9211310B2",
  "about": "“Use of a Chinese medicine composition in preparing medicaments for treating secondary prevention of myocardial infarction” (TASLY PHARMACEUTICAL GROUP CO., LTD, priority 2010, dated 2015)",
  "tested_on": "patients after acute myocardial infarction",
  "assay": "Life quality, Seattle Angina Questionnaire (SAQ), same clinical trial",
  "assay_type": "in vivo, human",
  "details": "1 month after treatment",
  "excerpt": "3508 patients who were in accordance with the diagnostic standards of AMI for 28 days to 2 years and differentiated as Qi deficiency and blood stagnation syndrome by TCM were studied. 0.5 g Chinese medicine composition prepared by the method of EXAMPLE 1 (Coded as QSYQ) was administrated half an hour after meal, 3 times per day.\nThere were 19 questions in the Seattle angina questionnaire (SAQ), including 5 parts: physical limitation (PL), anginal stability (AS), anginal frequency (AF), treatment satisfaction (TS) and disease perception (DP). After being given necessary explanation by doctors, the questions were answered independently by patients.\nThey included the overall survival time, angina pectoris score, TCM symptom score and life quality score, where angina pectoris score, TCM symptom score and life quality score were evaluated at randomization, in 1st, 3rd, 6th, 9th, 12th month after treatment and 18th month after follow-up.\nAll evaluation results of SAQ were described during the period of observation, and Wilcoxon rank sum test was used for inter-group comparison.\nThe evaluation results in the SAQ were depicted in different observations, and inter-group comparison was tested by Wilcoxon Rank-sum test.",
  "data": [
    {"molecule": "CC(=O)Oc1ccccc1C(=O)O", "note": "[Control group, aspirine]", "values": [
      {"measurement": "SAQ 2nd question: Clearly increased, % of cases", "setting": "FAS", "result": "(0.92%)"},
      {"measurement": "SAQ 2nd question: Clearly increased, cases", "setting": "FAS", "result": 16},
      {"measurement": "SAQ 2nd question: Clearly reduced, % of cases", "setting": "FAS", "result": "(16.50%)"},
      {"measurement": "SAQ 2nd question: Clearly reduced, cases", "setting": "FAS", "result": 287},
      {"measurement": "SAQ 2nd question: Same, % of cases", "setting": "FAS", "result": "(49.05%)"},
      {"measurement": "SAQ 2nd question: Same, cases", "setting": "FAS", "result": 853},
      {"measurement": "SAQ 2nd question: Slightly increased, % of cases", "setting": "FAS", "result": "(3.05%)"},
      {"measurement": "SAQ 2nd question: Slightly increased, cases", "setting": "FAS", "result": 53},
      {"measurement": "SAQ 2nd question: Slightly reduced, % of cases", "setting": "FAS", "result": "(30.48%)"},
      {"measurement": "SAQ 2nd question: Slightly reduced, cases", "setting": "FAS", "result": 530},
      {"measurement": "SAQ 3rd question: 1-2 times per week, % of cases", "setting": "FAS", "result": "(30.48%)"},
      {"measurement": "SAQ 3rd question: 1-2 times per week, cases", "setting": "FAS", "result": 530},
      {"measurement": "SAQ 3rd question: 1-3 times per day, % of cases", "setting": "FAS", "result": "(3.05%)"},
      {"measurement": "SAQ 3rd question: 1-3 times per day, cases", "setting": "FAS", "result": 53},
      {"measurement": "SAQ 3rd question: <1 time per week, % of cases", "setting": "FAS", "result": "(16.50%)"},
      {"measurement": "SAQ 3rd question: <1 time per week, cases", "setting": "FAS", "result": 287},
      {"measurement": "SAQ 3rd question: No onset, % of cases", "setting": "FAS", "result": "(0.00%)"},
      {"measurement": "SAQ 3rd question: No onset, cases", "setting": "FAS", "result": 0},
      {"measurement": "SAQ 3rd question: ≧3 times per week, % of cases", "setting": "FAS", "result": "(49.05%)"},
      {"measurement": "SAQ 3rd question: ≧3 times per week, cases", "setting": "FAS", "result": 853},
      {"measurement": "SAQ 3rd question: ≧4 times per day, % of cases", "setting": "FAS", "result": "(0.92%)"},
      {"measurement": "SAQ 3rd question: ≧4 times per day, cases", "setting": "FAS", "result": 16},
      {"measurement": "SAQ Question 1-3: Mildly limited, number of patients", "setting": "FAS", "result": 126},
      {"measurement": "SAQ Question 1-3: Mildly limited, percent of patients", "setting": "FAS", "result": "(7.23%)"},
      {"measurement": "SAQ Question 1-3: Moderately limited, number of patients", "setting": "FAS", "result": 34},
      {"measurement": "SAQ Question 1-3: Moderately limited, percent of patients", "setting": "FAS", "result": "(1.95%)"},
      {"measurement": "SAQ Question 1-3: Not limited, number of patients", "setting": "FAS", "result": 1261},
      {"measurement": "SAQ Question 1-3: Not limited, percent of patients", "setting": "FAS", "result": "(72.39%)"},
      {"measurement": "SAQ Question 1-3: Other reasons, number of patients", "setting": "FAS", "result": 9},
      {"measurement": "SAQ Question 1-3: Other reasons, percent of patients", "setting": "FAS", "result": "(0.52%)"},
      {"measurement": "SAQ Question 1-3: Severely limited, number of patients", "setting": "FAS", "result": 5},
      {"measurement": "SAQ Question 1-3: Severely limited, percent of patients", "setting": "FAS", "result": "(0.29%)"},
      {"measurement": "SAQ Question 1-3: Slightly limited, number of patients", "setting": "FAS", "result": 307},
      {"measurement": "SAQ Question 1-3: Slightly limited, percent of patients", "setting": "FAS", "result": "(17.62%)"},
      {"measurement": "SAQ Question 1-4: Mildly limited, number of patients", "setting": "FAS", "result": 349},
      {"measurement": "SAQ Question 1-4: Mildly limited, percent of patients", "setting": "FAS", "result": "(20.05%)"},
      {"measurement": "SAQ Question 1-4: Moderately limited, number of patients", "setting": "FAS", "result": 159},
      {"measurement": "SAQ Question 1-4: Moderately limited, percent of patients", "setting": "FAS", "result": "(9.13%)"},
      {"measurement": "SAQ Question 1-4: Not limited, number of patients", "setting": "FAS", "result": 618},
      {"measurement": "SAQ Question 1-4: Not limited, percent of patients", "setting": "FAS", "result": "(35.50%)"},
      {"measurement": "SAQ Question 1-4: Other reasons, number of patients", "setting": "FAS", "result": 12},
      {"measurement": "SAQ Question 1-4: Other reasons, percent of patients", "setting": "FAS", "result": "(0.69%)"},
      {"measurement": "SAQ Question 1-4: Severely limited, number of patients", "setting": "FAS", "result": 35},
      {"measurement": "SAQ Question 1-4: Severely limited, percent of patients", "setting": "FAS", "result": "(2.01%)"},
      {"measurement": "SAQ Question 1-4: Slightly limited, number of patients", "setting": "FAS", "result": 568},
      {"measurement": "SAQ Question 1-4: Slightly limited, percent of patients", "setting": "FAS", "result": "(32.62%)"},
      {"measurement": "SAQ Question 1-5: Mildly limited, number of patients", "setting": "FAS", "result": 315},
      {"measurement": "SAQ Question 1-5: Mildly limited, percent of patients", "setting": "FAS", "result": "(18.09%)"},
      {"measurement": "SAQ Question 1-5: Moderately limited, number of patients", "setting": "FAS", "result": 196},
      {"measurement": "SAQ Question 1-5: Moderately limited, percent of patients", "setting": "FAS", "result": "(11.26%)"},
      {"measurement": "SAQ Question 1-5: Not limited, number of patients", "setting": "FAS", "result": 648},
      {"measurement": "SAQ Question 1-5: Not limited, percent of patients", "setting": "FAS", "result": "(37.22%)"},
      {"measurement": "SAQ Question 1-5: Other reasons, number of patients", "setting": "FAS", "result": 10},
      {"measurement": "SAQ Question 1-5: Other reasons, percent of patients", "setting": "FAS", "result": "(0.57%)"},
      {"measurement": "SAQ Question 1-5: Severely limited, number of patients", "setting": "FAS", "result": 32},
      {"measurement": "SAQ Question 1-5: Severely limited, percent of patients", "setting": "FAS", "result": "(1.84%)"},
      {"measurement": "SAQ Question 1-5: Slightly limited, number of patients", "setting": "FAS", "result": 540},
      {"measurement": "SAQ Question 1-5: Slightly limited, percent of patients", "setting": "FAS", "result": "(31.02%)"},
      {"measurement": "SAQ Question 1-9: Mildly limited, % of cases", "setting": "FAS", "result": "(16.68%)"},
      {"measurement": "SAQ Question 1-9: Mildly limited, cases", "setting": "FAS", "result": 284},
      {"measurement": "SAQ Question 1-9: Moderately limited, % of cases", "setting": "FAS", "result": "(21.02%)"},
      {"measurement": "SAQ Question 1-9: Moderately limited, cases", "setting": "FAS", "result": 358},
      {"measurement": "SAQ Question 1-9: Not limited, % of cases", "setting": "FAS", "result": "(2.88%)"},
      {"measurement": "SAQ Question 1-9: Not limited, cases", "setting": "FAS", "result": 49},
      {"measurement": "SAQ Question 1-9: Other reasons, % of cases", "setting": "FAS", "result": "(6.17%)"},
      {"measurement": "SAQ Question 1-9: Other reasons, cases", "setting": "FAS", "result": 105},
      {"measurement": "SAQ Question 1-9: Severely limited, % of cases", "setting": "FAS", "result": "(41.93%)"},
      {"measurement": "SAQ Question 1-9: Severely limited, cases", "setting": "FAS", "result": 714},
      {"measurement": "SAQ Question 1-9: Slightly limited, % of cases", "setting": "FAS", "result": "(11.33%)"},
      {"measurement": "SAQ Question 1-9: Slightly limited, cases", "setting": "FAS", "result": 193},
      {"measurement": "SAQ 2nd question: Clearly increased, % of cases", "setting": "PP", "result": "(0.54%)"},
      {"measurement": "SAQ 2nd question: Clearly increased, cases", "setting": "PP", "result": 8},
      {"measurement": "SAQ 2nd question: Clearly reduced, % of cases", "setting": "PP", "result": "(16.75%)"},
      {"measurement": "SAQ 2nd question: Clearly reduced, cases", "setting": "PP", "result": 248},
      {"measurement": "SAQ 2nd question: Same, % of cases", "setting": "PP", "result": "(49.63%)"},
      {"measurement": "SAQ 2nd question: Same, cases", "setting": "PP", "result": 735},
      {"measurement": "SAQ 2nd question: Slightly increased, % of cases", "setting": "PP", "result": "(2.90%)"}
    ]}
  ]
}
